Source: patent US8309546B2, “Morpholinopurine derivatives” (Daiichi Sankyo Company, Limited, priority 2008, dated 2012)

Key:
[1] = biological target: T1, human mTOR (His-tagged mTOR (1362C)) (Homo sapiens, UniProt P42345); experiment: mTOR kinase activity inhibition assay; type: biochemical; conditions: HTRF, read-out: IC50 against mTOR
T1 construct: the 1362 to 2549 amino acid portion on the C terminus side of human mTOR; His tag (N); made in house
In short: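 Crude His-tagged mTOR (aa 1362–2549) from stable HEK293 cells, with 8 μg/ml biotinylated peptide in 50 mM HEPES pH 7.5, 20 mM MnCl2; compound diluted in 20 μM ATP solution, reaction 3 h at room temperature. Phospho-peptide detected by HTRF (anti-phospho-S6K Thr389 cryptate/streptavidin-XL665, overnight at 4°C), 665/620 nm ratio. IC50 derived from curve fit of % inhibition.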

[2] = tested on: human ovary cancer cell strain IGROV1; experiment: Cell growth inhibition test (MTT), IGROV1; type: cell-based; conditions: IGROV-1, 72 h, IGROV1, 3 days culture, read-out: concentration exhibiting anti-cell effect (GI50)
In short: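 MTT read-out at 540 nm after 4 h formazan formation gives living cell count following 3-day compound exposure at 37° C, 5% CO2. Seeding: 5000 AN3CA, 1000 IGROV1, 5000 HT29 cells/well. Growth rate T/C % = 100×[(B−C)/(A−C)], with C taken before dosing; GI50 = concentration giving 50% growth.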

[3] = tested on: human endometrial cancer cell strain AN3CA tumor; experiment: Anti-tumor effect assay using mouse subcutaneous transplantation model; type: in vivo, female nude mouse; conditions: AN3-CA, oral, tumor weight vs negative control, read-out: Anti-tumor effect (tumor growth inhibition rate); for inhibition in vivo at 2.5 mg/kg/day / inhibition in vivo at 10 mg/kg/day / inhibition in vivo at 5 mg/kg/day: 8 or 5 consecutive days depending on compound
In short: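 Female nude mice bore subcutaneous AN3CA tumour-section xenografts and were grouped at 80 to 200 mm^3 estimated volume. Compound was given orally at a set dose for 8 consecutive days with tumour weight taken the next day, or for 5 days with weight taken on the final dosing day. Effect = {1−(treated/negative-control tumour weight)}×100.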

T1 sequence (P42345 1362-2549): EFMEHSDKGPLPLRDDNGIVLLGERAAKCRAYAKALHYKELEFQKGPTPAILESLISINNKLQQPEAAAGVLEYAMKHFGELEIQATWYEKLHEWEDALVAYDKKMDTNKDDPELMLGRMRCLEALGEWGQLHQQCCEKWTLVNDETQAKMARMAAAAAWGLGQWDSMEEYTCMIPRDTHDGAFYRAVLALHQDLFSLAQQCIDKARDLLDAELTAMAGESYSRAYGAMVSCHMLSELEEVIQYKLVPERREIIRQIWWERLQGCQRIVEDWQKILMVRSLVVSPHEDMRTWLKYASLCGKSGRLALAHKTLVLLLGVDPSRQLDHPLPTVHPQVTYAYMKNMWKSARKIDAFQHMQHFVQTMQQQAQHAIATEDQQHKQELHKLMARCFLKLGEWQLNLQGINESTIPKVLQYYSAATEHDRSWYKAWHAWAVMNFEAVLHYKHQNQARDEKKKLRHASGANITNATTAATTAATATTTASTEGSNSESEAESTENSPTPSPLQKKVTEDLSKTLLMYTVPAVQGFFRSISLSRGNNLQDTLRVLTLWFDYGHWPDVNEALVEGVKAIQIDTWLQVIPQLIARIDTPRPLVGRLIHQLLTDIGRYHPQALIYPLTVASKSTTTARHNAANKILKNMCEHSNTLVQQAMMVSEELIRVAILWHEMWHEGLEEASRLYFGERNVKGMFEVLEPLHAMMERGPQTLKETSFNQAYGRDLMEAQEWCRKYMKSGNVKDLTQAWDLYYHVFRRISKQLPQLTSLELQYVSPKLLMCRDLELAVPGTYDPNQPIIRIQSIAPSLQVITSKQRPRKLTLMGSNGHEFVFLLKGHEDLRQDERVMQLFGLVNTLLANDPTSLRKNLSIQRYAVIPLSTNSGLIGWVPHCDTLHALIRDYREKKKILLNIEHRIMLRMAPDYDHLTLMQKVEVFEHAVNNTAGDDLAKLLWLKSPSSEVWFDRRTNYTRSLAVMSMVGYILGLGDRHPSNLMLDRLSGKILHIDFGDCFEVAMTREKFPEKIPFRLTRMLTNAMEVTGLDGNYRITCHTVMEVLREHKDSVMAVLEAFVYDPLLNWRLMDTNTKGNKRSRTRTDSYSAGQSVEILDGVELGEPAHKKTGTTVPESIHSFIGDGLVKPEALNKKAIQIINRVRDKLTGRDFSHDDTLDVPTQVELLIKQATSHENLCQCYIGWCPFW

SMILES	IC50 [1]	GI50 [2]	inhibition in vivo at 0.875 mg/kg/day ([3]; 120 h, 0.875 mg/kg/day, 5 consecutive days)	inhibition in vivo at 3.5 mg/kg/day ([3]; 120 h, 3.5 mg/kg/day, 5 consecutive days)	inhibition in vivo at 2.5 mg/kg/day [3]	inhibition in vivo at 10 mg/kg/day [3]	inhibition in vivo at 5 mg/kg/day [3]
CC(=O)N1CCN(c2nc3c(N4CCOCC4)nc(-c4cnc(N)nc4)nc3n2CC(F)(F)F)C[C@@H]1C [Example 63, 5-{8-[(3S)-4-Acetyl-3-methylpiperazin-1-yl]-6-morpholin-4-yl-9-(2,2,2-trifluoroethyl)-9H-purin-2-yl}pyrimidin-2-amine]	< 10 nM	≤ 5000 nM	52%	88%	–	–	–
CNc1ncc(-c2nc(N3CCOCC3)c3nc(N4CCN(C(C)=O)[C@H](C)C4)n(CC(F)(F)F)c3n2)cn1 [Example 108, 5-{8-[(3R)-4-Acetyl-3-methylpiperazin-1-yl]-6-morpholin-4-yl-9-(2,2,2-trifluoroethyl)-9H-purin-2-yl}-N-methylpyrimidin-2-amine]	< 10 nM	≤ 5000 nM	–	–	53%	82%	–
CC(C)Cn1c(N2CCN(C(=O)[C@@H](C)O)CC2)nc2c(N3CCOCC3)nc(-c3cnc(N)nc3)nc21 [Example 93]	10 to 30 nM	≤ 5000 nM	–	–	42%	–	54%
CC(=O)N1CCN(c2nc3c(N4CCOCC4)nc(-c4cnc(N)nc4)nc3n2CC(C)C)C[C@@H]1C [Example 101, 5-{8-[(3S)-4-Acetyl-3-methylpiperazin-1-yl]-9-isobutyl-6-morpholin-4-yl-9H-purin-2-yl}pyrimidin-2-amine]	< 10 nM	≤ 5000 nM	–	–	42%	–	69%
CC(C)Cn1c(N2CCN(S(C)(=O)=O)CC2)nc2c(N3CCOCC3)nc(-c3cnc(N)nc3)nc21 [Example 1, 5-{9-Isobutyl-8-[4-(methylsulfonyl)piperazin-1-yl]-6-morpholin-4-yl-9H-purin-2-yl}pyrimidin-2-amine]	10 to 30 nM	≤ 5000 nM	–	–	–	92%	79%
CC(=O)N1CCN(c2nc3c(N4CCOCC4)nc(-c4cnc(N)nc4)nc3n2CC(C)C)CC1 [Example 2, 5-[8-(4-Acetylpiperazin-1-yl)-9-isobutyl-6-morpholin-4-yl-9H-purin-2-yl]pyrimidin-2-amine]	10 to 30 nM	≤ 5000 nM	–	–	–	70%	44%
CC(C)Cn1c(N2CCN(C=O)[C@H](C)C2)nc2c(N3CCOCC3)nc(-c3cnc(N)nc3)nc21 [Example 100, (2R)-4-[2-(2-Aminopyrimidin-5-yl)-9-isobutyl-6-morpholin-4-yl-9H-purin-8-yl]-2-methylpiperazine-1-carboaldehyde]	10 to 30 nM	≤ 5000 nM	–	–	53%	–	62%
